According to PubChem BioAssay (NCI):
Where “and” joins values, the source holds several entries; their conditions need not be identical. Identical values can stand only once.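 All cell lines were grown in 96-well plates and treated with compound for 48 hours. The concentration for 50% growth inhibition is given as GI50. TGI: total growth inhibition.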

Assays:
Assay in all cases: NCI tumour cell line growth inhibition, 48 h
COLO 205 colon = system: COLO 205 colon
EKVX NSCLC = system: EKVX NSCLC
HCT-15 colon = system: HCT-15 colon
HL-60(TB) leukemia = system: HL-60(TB) leukemia
OVCAR-8 ovarian = system: OVCAR-8 ovarian
RPMI-8226 leukemia = system: RPMI-8226 leukemia
SF-539 CNS = system: SF-539 CNS
SK-MEL-2 melanoma = system: SK-MEL-2 melanoma
SNB-75 CNS = system: SNB-75 CNS
U251 CNS = system: U251 CNS

SMILES	TGI (COLO 205 colon) [µM]	TGI (EKVX NSCLC) [µM]	TGI (HCT-15 colon) [µM]	TGI (HL-60(TB) leukemia) [µM]	TGI (OVCAR-8 ovarian) [µM]	TGI (RPMI-8226 leukemia) [µM]	TGI (SF-539 CNS) [µM]	TGI (SK-MEL-2 melanoma) [µM]	TGI (SNB-75 CNS) [µM]	TGI (U251 CNS) [µM]	GI50 (COLO 205 colon) [µM]	GI50 (EKVX NSCLC) [µM]	GI50 (HCT-15 colon) [µM]	GI50 (HL-60(TB) leukemia) [µM]	GI50 (OVCAR-8 ovarian) [µM]	GI50 (RPMI-8226 leukemia) [µM]	GI50 (SF-539 CNS) [µM]	GI50 (SK-MEL-2 melanoma) [µM]	GI50 (SNB-75 CNS)	GI50 (U251 CNS) [µM]
Cc1cc(S(=O)(=O)Nc2nc(N)nc(N3N=CCC3C)n2)c(S)cc1Cl (stereo not given)	> 10	> 10	> 10	> 10	> 10	> 10	> 10	> 10	> 10	> 10	–	–	–	–	–	–	–	–	–	–
Cc1cc2c(CC(=O)O)[nH]nc2c(C(=O)O)c1C	> 100	> 100	> 100	> 100	> 100	> 100	> 100	> 100	> 100	> 100	–	–	–	–	–	–	–	–	–	–
CCCCNc1nc(NC(C)(C)C)nc(NC(C)(C)C)n1	> 100	> 100	> 100	> 100	> 100	> 100	> 100	> 100	68.7	36.7	4.44	3.12	2.97	15.7	4.74	1.4	16.9	15.4	12.8 µM	5.92
O=c1ccn(C2OC(CO)C(O)C2O)c(=O)[nH]1 (stereo not given)	> 1000	> 1000	> 1000	> 1000	> 1000	> 1000	> 1000	> 1000	> 1000	> 1000	> 1000	> 1000	> 1000	> 1000	> 1000	> 1000	> 1000	> 1000	789 µM and > 10 µM	> 1000
O=C(Nc1ccc(Cl)cc1)Nc1ccc(Cl)c(Cl)c1	3.42	> 100	62.5	7.69	> 100	4.73	60.4	32.8	> 100	> 100	1.85	3.41	2.92	2.84	5.02	1.61	2.96	3.07	2.59 µM	3.52
CN1CCN(Cc2ccc(NC(=O)c3cncc(C#Cc4cnc(N)c5ccc(F)cc45)c3)cc2C(F)(F)F)CC1	4.77	7.89	4.62	4.42	7.09	26.2	6.13	2.39	5.71	6.56	1.23	3.84	1.03	1.05	2.31	1.27	2.03	0.808	1.3 µM	2.14
COc1ccc(-c2c(C3=NCCN3)nnn2-c2ccccc2)cc1	> 100	> 100	> 100	> 100	> 100	> 100	> 100	> 100	> 100	> 100	–	–	–	–	–	–	–	–	–	–
